In PMC9331716, “Nucleoside Transport and Nucleobase Uptake Null Mutants in Leishmania mexicana for the Routine Expression and Characterization of Purine and Pyrimidine Transporters” (International Journal of Molecular Sciences, 2022):
Values joined by “and” are separate entries in the source; they are usually repeats but may differ in a detail not shown here. Identical values can stand only once. Like-named read-outs stand apart in the source and are kept apart here.

What was measured:
[1] = test system: Lmex5FURes cells; assay: Radiolabel transport assay in Lmex5FURes cells; assay type: cell-based, Leishmania mexicana
Experimental: (§1) Transport assays were performed exactly as described previously. Briefly, 10^7 cells in 100 μL of assay buffer (AB) were mixed with an equal volume of radiolabel at 2× concentration for a preset time. The incubation was terminated by the addition of 700 μL of “Stop solution”, being ice-cold 1 mM solution of unlabelled permeant, followed by immediate centrifugation through an oil layer in a microfuge at 13,000 rpm. This causes the cell pellet to reside under the oil layer and isolated from residual radiolabel in the assay buffer. The tubes were flash-frozen in liquid nitrogen and the bottom tip, containing the cell pellet, cut off and collected in a scintillation tube. Cells were solubilized by gentle shaking after addition of a 2% SDS solution, before the addition of scintillation fluid (Scintilogic U, Lablogic, Sheffield, UK); the tubes were left to stand in the dark overnight before counting in a 300SL Hidex Scintillation Counter (Lablogic). Linear and nonlinear regression analyses were carried out using GraphPad Prism versions 8.0 and higher. […] However, all parameters, including Km, Vmax, Ki, given are the average of at least three separate, independent determinations; errors given are standard errors, unless otherwise specified.

[2] = target: Aspergillus nidulans uracil transporter FurD (Aspergillus nidulans, UniProt A6N844); assay: Transport assay, FurD expressed in Lmex5FURes; assay type: cell-based
Experimental: as §1

[3] = target: FurD; set-up: method as in PMID 17520477; settings: FurD in A. nidulans, cited from earlier work
[4] = test system: L. mexicana cas9 cells; assay: Radiolabel transport assay in cas9 cells; assay type: cell-based, Leishmania mexicana; settings: for rate of uptake: cas9 cells
Experimental: as §1

[5] = test system: L. mexicana NT1-KO cells; assay: Radiolabel transport assay in NT1-KO cells; assay type: cell-based, Leishmania mexicana
Experimental: as §1

[6] = test system: L. mexicana SUPKO (ΔNT1.1/1.2/2) cells; assay: Radiolabel transport assay in SUPKO cells; assay type: cell-based, Leishmania mexicana; settings: for rate of uptake: SUPKO cells
Experimental: as §1

[7] = test system: L. mexicana NT3-KO promastigotes; assay: Radiolabel transport assay in NT3-KO cells; assay type: cell-based, Leishmania mexicana; settings: for rate of uptake: NT3-KO cells, 100 nM radiolabel; for upregulation of uptake rate in NT3-KO relative to cas9: adenosine and inosine at 100 nM, separate experiments listed singly
Experimental: as §1

[8] = test system: LmexNT1.1; assay: Transport assay, LmexNT1.1 expressed in SUPKO; assay type: cell-based, Leishmania mexicana; settings: SUPKO expressing LmexNT1.1, 50 nM radiolabel
Experimental: as §1

[9] = test system: LmexNT1.2; assay: Transport assay, LmexNT1.2 expressed in SUPKO; assay type: cell-based, Leishmania mexicana; settings: for rate of uptake: SUPKO expressing LmexNT1.2, 50 nM radiolabel
Experimental: as §1

[10] = target: T1, TvagENT3 (Trichomonas vaginalis, UniProt A2E5Q3); assay: cell-based
T1 sequence (A2E5Q3 entry or part of it): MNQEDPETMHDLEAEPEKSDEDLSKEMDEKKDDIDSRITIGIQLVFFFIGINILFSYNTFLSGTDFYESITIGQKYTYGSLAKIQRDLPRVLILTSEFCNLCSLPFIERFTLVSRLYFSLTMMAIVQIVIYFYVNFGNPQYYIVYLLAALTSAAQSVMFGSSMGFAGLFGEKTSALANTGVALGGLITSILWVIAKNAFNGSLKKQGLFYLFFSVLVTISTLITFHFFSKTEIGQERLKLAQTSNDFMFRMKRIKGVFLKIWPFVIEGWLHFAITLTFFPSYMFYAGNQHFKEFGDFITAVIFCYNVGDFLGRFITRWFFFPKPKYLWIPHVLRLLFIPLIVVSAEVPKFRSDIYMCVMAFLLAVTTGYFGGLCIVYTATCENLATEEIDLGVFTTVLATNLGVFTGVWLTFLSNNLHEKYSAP
Experimental: as §1

[11] = target: T2, TcrNB2 (Trypanosoma cruzi, UniProt Q4DHG0); assay: Transport assay, TcrNB2 expressed in LmexNT3-KO; assay type: cell-based; settings: 1 mM inhibitor, TcrNB2 in NT3-KO; read-out: inhibition of adenine uptake
T2 sequence (Q4DHG0 1-440): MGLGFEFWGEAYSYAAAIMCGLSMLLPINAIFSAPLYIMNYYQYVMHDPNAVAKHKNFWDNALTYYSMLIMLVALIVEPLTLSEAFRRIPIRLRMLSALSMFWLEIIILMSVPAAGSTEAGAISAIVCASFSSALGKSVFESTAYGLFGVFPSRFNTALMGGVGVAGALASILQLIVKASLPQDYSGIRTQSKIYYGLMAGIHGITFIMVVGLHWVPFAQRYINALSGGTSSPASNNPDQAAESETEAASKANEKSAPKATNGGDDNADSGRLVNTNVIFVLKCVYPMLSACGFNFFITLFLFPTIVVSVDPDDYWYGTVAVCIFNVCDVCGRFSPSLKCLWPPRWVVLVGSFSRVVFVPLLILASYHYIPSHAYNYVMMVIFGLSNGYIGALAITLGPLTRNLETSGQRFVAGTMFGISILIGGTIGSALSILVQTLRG
Experimental: as §1

[12] = target: T2, TcrNB2; assay: Transport assay, TcrNB2 expressed in NT1-KO; assay type: cell-based; settings: 50 nM [^3H]-adenosine, 100 nM [^3H]-hypoxanthine, 100 nM [^3H]-uracil; data not shown
Experimental: as §1

[13] = target: T1, TvagENT3; settings: TvagENT3 expressed in T. brucei; cited from earlier work
[14] = test system: L. mexicana cas9 promastigotes; assay: Resazurin (Alamar blue) drug sensitivity assay, cas9 control line; assay type: cell-based; settings: Leishmania mexicana, n = 3
Experimental: (§2) The assay is based on the reduction of the dye resazurin (Alamar blue) by live but not dead cells and was performed with various strains of Leishmania mexicana promastigotes, exactly as described. Briefly, doubling dilutions starting at 100 µM were set up over 2 rows of a 96-well plate and 2 × 10^5 cells were added to each well, followed by incubation at 25 °C. After 72 h, 20 µL of 125 µg/mL resazurin solution was added and the plates incubated for a further 24 h. Fluorescence was determined in a FLUOstar OPTIMA plate reader (BMG Labtech, Ortenberg, Germany), reading the fluorescence intensity in arbitrary units (A.U.) at 544 nm wavelength for excitation and 620 nm wavelength for emission. The EC50 values and fluorescence data were determined and plotted to a sigmoid curve with variable slope, using the GraphPad Prism 8 software package. All EC50 values were determined on at least three independent occasions and are presented as average ± SEM.

[15] = test system: L. mexicana NT2-KO promastigotes; assay: Resazurin (Alamar blue) drug sensitivity assay, NT2-KO line; assay type: cell-based; settings: Leishmania mexicana, NT2-KO strain, n = 3
Experimental: as §2

[16] = test system: L. mexicana cas9 cells; assay: Growth curve of cas9 cells with selection agents; assay type: cell-based, Leishmania mexicana; settings: 5 μM tubercidin, 5 μg/mL blasticidin, 20 µg/mL puromycin, 1 µM formycin B
Experimental: The growth rates of the L. mexicana promastigotes were determined in the standard HOMEM medium supplemented with 10% FBS, in 12-well plates, in triplicate. After every 24 h, cells were counted in a sample of the culture, using either a Neubauer hemocytometer chamber (Hawksley, Birmingham, UK) or by a coulter particle counter and size analyzer (Beckman, Brea, CA, USA) to count the cells in triplicate. An average of the triplicate readings was taken and plotted using GraphPad Prism 8 software to obtain the growth curves.

[17] = target: L. major U1 transporter; set-up: method as in PMID 15796010; settings: unit printed only with the uridine value; cited from earlier work
[18] = substrate: O=c1cc[nH]c(=O)[nH]1; assay: Transport assay, FurD expressed in Lmex5FURes; assay type: cell-based, Aspergillus nidulans; settings: other: FurD in Lmex5FURes, 100 nM [^3H]-uracil over 10 s
Experimental: as §1

[19] = 50 nM radiolabel, listed as [^3H]-adenosine

Molecule: O=c1[nH]cc(F)c(=O)[nH]1 [5FU, 5-fluorouracil]
- uptake in Lmex5FURes control ([1]; 100 nM [^3H]-5FU, p = 0.27): not significantly different from zero
- Ki ([2]; FurD in Lmex5FURes, inhibition of [^3H]-uracil uptake): 700 ± 250 nM
- Ki ([3]; unit printed only with the uracil Km): 460 nM

Molecule: Nc1ncnc2c1ncn2[C@@H]1O[C@H](CO)[C@@H](O)[C@H]1O [adenosine]
- inhibition of [^3H]-thymidine uptake ([4]; 0.1 µM [^3H]-thymidine, adenosine concentration and cell line not explicitly printed): fully inhibited
- rate of uptake [4, 19]: 0.082 ± 0.004 pmol(10^7 cells)^−1s^−1 and 0.081 ± 0.006 pmol(10^7 cells)^−1s^−1
- rate of uptake ([4]; 100 nM radiolabel, listed as [^3H]-adenosine): 0.082 ± 0.004 pmol(10^7 cells)^−1s^−1 and 0.086 ± 0.009 pmol(10^7 cells)^−1s^−1
- rate of uptake lower in NT1-KO than in cas9 ([5]; 50 nM radiolabel): 99.4%
- rate of uptake ([5]; NT1-KO cells, 50 nM radiolabel): 0.00048 ± 0.00007 pmol(10^7 cells)^−1s^−1
- uptake reduced in SUPKO compared to cas9 ([6]; 50 nM radiolabel): 99%
- rate of uptake ([6]; 50 nM radiolabel): 0.00063 pmol(10^7 cells)^−1s^−1
- rate of uptake [6, 19]: 0.0006 ± 0.00007 pmol(10^7 cells)^−1s^−1
- rate of uptake ([6]; 100 nM radiolabel): 0.00046 ± 0.00002 pmol(10^7 cells)^−1s^−1
- rate of uptake [7]: 0.55 ± 0.05 pmol(10^7 cells)^−1s^−1
- upregulation of uptake rate in NT3-KO relative to cas9 ([7]; listed as [^3H]-adenosine): 4.0 fold and 6.4 fold
- rate of uptake [8]: 0.27 ± 0.006 pmol(10^7 cells)^−1s^−1
- rate of uptake [9]: 0.36 ± 0.03 pmol(10^7 cells)^−1s^−1
- uptake lower in SUPKO than in SUPKO expressing TvagENT3 ([10]; 50 nM radiolabel): 94.6%
- rate of uptake ([10]; SUPKO expressing TvagENT3, 50 nM radiolabel): 0.0080 ± 0.0004 pmol(10^7 cells)^−1s^−1
- inhibition at 1000 µM [11]: 15.5 ± 11.7%
- effect of TcrNB2 expression on uptake in NT1-KO cells [12]: did not increase
- Ki [13]: 870 ± 150 nM

Molecule: O=c1[nH]cnc2c([C@@H]3O[C@H](CO)[C@@H](O)[C@H]3O)n[nH]c12 [formycin B]
- EC50 [14]: 18 ± 2 nM
- EC50 [15]: 63500 ± 1900 nM
- sensitivity of cas9 cells in growth curve [16]: confirmed

Molecule: O=c1[nH]cnc2c1ncn2[C@@H]1O[C@H](CO)[C@@H](O)[C@H]1O [inosine]
- rate of uptake ([4]; 100 nM radiolabel): 0.016 ± 0.002 pmol(10^7 cells)^−1s^−1
- rate of uptake [7]: 0.061 ± 0.002 pmol(10^7 cells)^−1s^−1
- upregulation of uptake rate in NT3-KO relative to cas9 [7]: 4 fold
- Ki ([10]; TvagENT3 in SUPKO, inhibition of 50 nM [^3H]-adenosine uptake): 2700 ± 500 nM
- Ki [13]: 3300 ± 70 nM

Molecule: O=c1cc[nH]c(=O)[nH]1 [uracil]
- rate of uptake ([4]; 100 nM radiolabel): 0.00031 ± 0.00002 pmol(10^7 cells)^−1s^−1
- uptake in NT1-KO compared with cas9 ([5]; 100 nM [^3H]-uracil): identical
- uptake in SUPKO compared with cas9 ([6]; 100 nM [^3H]-uracil, n = 3, p = 0.81): identical
- rate of uptake ([6]; 100 nM radiolabel): 0.00032 ± 0.00003 pmol(10^7 cells)^−1s^−1
- rate of uptake ([1]; Lmex5FURes cells, 100 nM radiolabel): 0.00057 ± 0.0001 pmol(10^7 cells)^−1s^−1
- rate of uptake ([2]; Lmex5FURes expressing FurD clone 2, 100 nM radiolabel): 0.29 ± 0.02 pmol(10^7 cells)^−1s^−1
- effect of TcrNB2 expression on uptake in NT1-KO cells [12]: did not increase
- Ki [17]: 320 ± 70 nM
- Km [3]: 0.45 µM

Molecule: O=c1ccn([C@@H]2O[C@H](CO)[C@@H](O)[C@H]2O)c(=O)[nH]1 [uridine]
- rate of uptake ([4]; 100 nM radiolabel): 0.10 ± 0.003 pmol(10^7 cells)^−1s^−1
- uptake reduced in SUPKO compared to cas9 ([6]; 100 nM (0.1 µM) radiolabel, listed as [^3H]-uridine): 88.3% and 98.6% and 97.5%
- rate of uptake ([6]; 50 nM radiolabel): not significantly different from zero
- rate of uptake ([6]; 100 nM radiolabel): 0.0014 ± 0.00009 pmol(10^7 cells)^−1s^−1
- rate of uptake [8]: 0.0012 ± 0.0001 pmol(10^7 cells)^−1s^−1
- rate of uptake [9]: 0.0076 ± 0.0009 pmol(10^7 cells)^−1s^−1
- uptake faster by cells expressing NT1.2 than NT1.1 ([9]; SUPKO transfectants, p = 0.0004): 6.3 fold
- Ki [17]: 10900 ± 3200 nM

B1: Aspergillus nidulans uracil transporter FurD (Aspergillus nidulans) (protein)
chain: MRFGRFHLRVEQSRSAFASGNARWTNLDLDPVPRAGRVWGPLSFISYWISDAFNAATWQFASSIIAVGLSWRESLGIVALSFFIISFVIAANGAVGSIYHIPFPVIARASWGFWGSYIAIISRVILAIFWFAIQNVNGANAVKAMISAIWPSFLSMKNTIPQDQGIETNTMIAYMIFWIVQMPFLCIHPNKVRWLFATKSVLVPAAWIAILIWAFVAEGKGALFEQRATVSGSQYSWVWLASMTSVLGNYATLSVNQSDFSRYSRVSAKWQLLYIPLLPVIFTFISFIGIAASSAGWTRYNTPSIPWDPIELISHWDSRAARFFGAFSFALASLGVNISANSISAANDLMALFPTYVDLRRGQIICGVISWALVPWKILESASNFLNFMSAYAIFLGPIAAIMLWDFWLIKNRKYDTVALYQPDTPIYRFNAWLVNWRAVVAFLVGVIPSLPGLSNSVNSRIQVGVGIHPYQFGWLLGFVGTSLVYIALSYGFPVREALIERAVLSDEVYEGREVEGEGVEEGREELGESKREGVGKEKGFAVY
- Km [18]: 0.89 ± 0.20 µM
